Data taken from PubChem BioAssay (NCI).
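A five-concentration, 48-hour dose response in 96-well plates underlies each endpoint, interpolated linearly between surrounding concentrations. TGI denotes the concentration required for complete inhibition of growth.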

What was measured:
Test in all cases: inhibition of tumour cell growth, NCI panel, 48 h
SF-268 CNS = tested on: SF-268 CNS
HT29 colon = tested on: HT29 colon
MDA-MB-435 = tested on: MDA-MB-435
NCI-H226 lung = tested on: NCI-H226 lung
SNB-19 CNS = tested on: SNB-19 CNS
MALME-3M melanoma = tested on: MALME-3M melanoma
PC-3 prostate = tested on: PC-3 prostate
SW-620 colon = tested on: SW-620 colon
SK-OV-3 ovarian = tested on: SK-OV-3 ovarian
SNB-75 CNS = tested on: SNB-75 CNS
MDA-N = tested on: MDA-N
A498 renal = tested on: A498 renal

## O=C(CNc1ccccn1)Nn1cnc2ccc(S(=O)(=O)Nc3ccccn3)cc2c1=O
SF-268 CNS
  TGI: > 100 µM
HT29 colon
  TGI: > 100 µM
MDA-MB-435
  TGI: > 100 µM
NCI-H226 lung
  TGI: > 100 µM
SNB-19 CNS
  TGI: > 100 µM
MALME-3M melanoma
  TGI: > 100 µM
PC-3 prostate
  TGI: > 100 µM
SW-620 colon
  TGI: > 100 µM
SK-OV-3 ovarian
  TGI: > 100 µM
SNB-75 CNS
  TGI: > 100 µM
MDA-N
  TGI: > 100 µM

## N#CCCn1[nH]c(=O)c(Cl)c(Cl)c1=O
SF-268 CNS
  TGI: 32 µM
HT29 colon
  TGI: 24.2 µM
A498 renal
  TGI: 41.2 µM
NCI-H226 lung
  TGI: 49.4 µM
SNB-19 CNS
  TGI: 29 µM
MALME-3M melanoma
  TGI: 33 µM
SW-620 colon
  TGI: 31.8 µM
SNB-75 CNS
  TGI: 26.7 µM

## O=[N+]([O-])c1ccc(C2=Nc3ccccc3S(=O)C(c3ccccc3)C2)cc1 (stereo not drawn)
SF-268 CNS
  TGI: > 100 µM
HT29 colon
  TGI: 42 µM
NCI-H226 lung
  TGI: 49.4 µM
SNB-19 CNS
  TGI: 68 µM
MALME-3M melanoma
  TGI: > 100 µM
SW-620 colon
  TGI: 52.8 µM
SK-OV-3 ovarian
  TGI: 73.6 µM
SNB-75 CNS
  TGI: 53.3 µM

## CCOC(=O)c1c2ccc(/C=C/c3ccccn3)ccc-2c(C(=O)OCC)c1N
SF-268 CNS
  TGI: 0.966 µM
HT29 colon
  TGI: > 100 µM
A498 renal
  TGI: > 100 µM
NCI-H226 lung
  TGI: > 100 µM
SNB-19 CNS
  TGI: > 100 µM
MALME-3M melanoma
  TGI: > 100 µM
SW-620 colon
  TGI: > 100 µM
SK-OV-3 ovarian
  TGI: > 100 µM
SNB-75 CNS
  TGI: > 100 µM

## CCCCCCCC/C=C1\CCC(CN(C)C)C1=O (stereo not drawn)
SF-268 CNS
  TGI: 21.2 µM
HT29 colon
  TGI: 12.5 µM
A498 renal
  TGI: 30.7 µM
NCI-H226 lung
  TGI: 37.3 µM
SNB-19 CNS
  TGI: 30.4 µM
MALME-3M melanoma
  TGI: 14.3 µM
SW-620 colon
  TGI: 8.69 µM
SK-OV-3 ovarian
  TGI: 30.9 µM
SNB-75 CNS
  TGI: 14.1 µM

## CC1=NN(c2nc(N)nc(NS(=O)(=O)c3cc(C)c(Cl)cc3S)n2)C(C)(C)C1
SF-268 CNS
  TGI: > 10 µM
HT29 colon
  TGI: > 10 µM
A498 renal
  TGI: > 10 µM
NCI-H226 lung
  TGI: > 10 µM
SNB-19 CNS
  TGI: > 10 µM
MALME-3M melanoma
  TGI: > 10 µM
PC-3 prostate
  TGI: > 10 µM
SW-620 colon
  TGI: > 10 µM
SK-OV-3 ovarian
  TGI: > 10 µM
SNB-75 CNS
  TGI: > 10 µM
MDA-N
  TGI: > 10 µM

## CC(C)C1CNC(=O)C2(C=NC(C(C)C)CNC(=O)C3(C=N1)CCCO3)CCCO2 (stereo not drawn)
SF-268 CNS
  TGI: > 10 µM
HT29 colon
  TGI: > 10 µM
MDA-MB-435
  TGI: > 10 µM
A498 renal
  TGI: > 10 µM
SNB-19 CNS
  TGI: > 10 µM
MALME-3M melanoma
  TGI: > 10 µM
PC-3 prostate
  TGI: > 10 µM
SW-620 colon
  TGI: > 10 µM
SK-OV-3 ovarian
  TGI: > 10 µM
SNB-75 CNS
  TGI: > 10 µM
MDA-N
  TGI: > 10 µM

## CC1=C(c2nc3ccccc3s2)C(=O)OC1(C)C
SF-268 CNS
  TGI: > 100 µM
HT29 colon
  TGI: > 100 µM
NCI-H226 lung
  TGI: > 100 µM
SNB-19 CNS
  TGI: > 100 µM
MALME-3M melanoma
  TGI: > 100 µM
SW-620 colon
  TGI: > 100 µM
SK-OV-3 ovarian
  TGI: > 100 µM
SNB-75 CNS
  TGI: > 100 µM

## CCC(NC(C)c1ccccc1)C(=O)c1ccc(OCc2ccccc2)c(OCc2ccccc2)c1 (stereo not drawn)
SF-268 CNS
  TGI: > 100 µM
HT29 colon
  TGI: > 100 µM
MDA-MB-435
  TGI: > 100 µM
NCI-H226 lung
  TGI: > 100 µM
SNB-19 CNS
  TGI: > 100 µM
MALME-3M melanoma
  TGI: > 100 µM
PC-3 prostate
  TGI: > 100 µM
SW-620 colon
  TGI: > 100 µM
SK-OV-3 ovarian
  TGI: > 100 µM
SNB-75 CNS
  TGI: > 100 µM
MDA-N
  TGI: > 100 µM

## COCC(C)(C)N=CN1Cc2cc3ccccc3nc2C1
SF-268 CNS
  TGI: > 100 µM
HT29 colon
  TGI: > 100 µM
NCI-H226 lung
  TGI: > 100 µM
SNB-19 CNS
  TGI: > 100 µM
MALME-3M melanoma
  TGI: > 100 µM
SW-620 colon
  TGI: > 100 µM
SK-OV-3 ovarian
  TGI: > 100 µM
SNB-75 CNS
  TGI: > 100 µM

## CCOC(=O)N/N=C(/N)c1cccc(Br)c1
SF-268 CNS
  TGI: > 100 µM
HT29 colon
  TGI: > 100 µM
SNB-19 CNS
  TGI: > 100 µM
MALME-3M melanoma
  TGI: > 100 µM
PC-3 prostate
  TGI: > 100 µM
SK-OV-3 ovarian
  TGI: > 100 µM
SNB-75 CNS
  TGI: > 100 µM
MDA-N
  TGI: > 100 µM

## Nc1nc2c(N)cc(C(F)(F)F)cc2nc1-c1ccccc1
SF-268 CNS
  TGI: > 100 µM
A498 renal
  TGI: > 100 µM
NCI-H226 lung
  TGI: > 100 µM
SNB-19 CNS
  TGI: > 100 µM
MALME-3M melanoma
  TGI: > 100 µM
SW-620 colon
  TGI: > 100 µM
SK-OV-3 ovarian
  TGI: > 100 µM
SNB-75 CNS
  TGI: 93.5 µM

## O=C1C(c2ccccc2)=C(c2ccccc2)C(c2ccc(Cc3ccc(C4=C(c5ccccc5)C(=O)C(c5ccccc5)=C4c4ccccc4)cc3)cc2)=C1c1ccccc1
SF-268 CNS
  TGI: > 100 µM
HT29 colon
  TGI: > 100 µM
A498 renal
  TGI: > 100 µM
NCI-H226 lung
  TGI: > 100 µM
SNB-19 CNS
  TGI: > 100 µM
MALME-3M melanoma
  TGI: > 100 µM
SW-620 colon
  TGI: > 100 µM
SK-OV-3 ovarian
  TGI: > 100 µM
SNB-75 CNS
  TGI: > 100 µM

## O=C1N=C2SC=C(NC(=S)Nc3ccccc3)N2NC12c1ccccc1-c1ccccc12
SF-268 CNS
  TGI: > 10 µM
HT29 colon
  TGI: > 10 µM
MDA-MB-435
  TGI: > 10 µM
NCI-H226 lung
  TGI: > 10 µM
SNB-19 CNS
  TGI: > 10 µM
MALME-3M melanoma
  TGI: > 10 µM
PC-3 prostate
  TGI: > 10 µM
SW-620 colon
  TGI: > 10 µM
SK-OV-3 ovarian
  TGI: > 10 µM
SNB-75 CNS
  TGI: > 10 µM
MDA-N
  TGI: > 10 µM

## CC(C)[C@@H]1CC[C@@H](C)C[C@H]1OC(=O)c1c2n(c3ccccc13)C[C@H]1OC(C)(C)O[C@@H]21
SF-268 CNS
  TGI: > 100 µM
HT29 colon
  TGI: > 100 µM
MDA-MB-435
  TGI: > 100 µM
NCI-H226 lung
  TGI: > 100 µM
MALME-3M melanoma
  TGI: > 100 µM
PC-3 prostate
  TGI: > 100 µM
SW-620 colon
  TGI: > 100 µM
SK-OV-3 ovarian
  TGI: > 100 µM
MDA-N
  TGI: > 100 µM

## C=CCCC1(O)C(O)C(CO)O[C@H](O[C@@]2(CO)OC(CO)C(O)C2O)C1O (stereo partly drawn)
SF-268 CNS
  TGI: > 100 µM
HT29 colon
  TGI: > 100 µM
MDA-MB-435
  TGI: > 100 µM
NCI-H226 lung
  TGI: > 100 µM
SNB-19 CNS
  TGI: > 100 µM
MALME-3M melanoma
  TGI: > 100 µM
PC-3 prostate
  TGI: > 100 µM
SW-620 colon
  TGI: > 100 µM
SNB-75 CNS
  TGI: > 100 µM

## CCc1n[nH]c(=O)n1CCCCCCCCn1c(CC)n[nH]c1=O
SF-268 CNS
  TGI: > 100 µM
HT29 colon
  TGI: > 100 µM
MDA-MB-435
  TGI: > 100 µM
NCI-H226 lung
  TGI: > 100 µM
SNB-19 CNS
  TGI: > 100 µM
MALME-3M melanoma
  TGI: > 100 µM
PC-3 prostate
  TGI: > 100 µM
SW-620 colon
  TGI: > 100 µM
SK-OV-3 ovarian
  TGI: > 100 µM
SNB-75 CNS
  TGI: > 100 µM
MDA-N
  TGI: > 100 µM

## C=C1CC(C)(COc2ccc3c(C)c(Cl)c(=O)oc3c2)OC1=O (stereo not drawn)
SF-268 CNS
  TGI: 19.2 µM
HT29 colon
  TGI: 3.48 µM
MDA-MB-435
  TGI: 11.7 µM
NCI-H226 lung
  TGI: 17.8 µM
SNB-19 CNS
  TGI: 26.7 µM
MALME-3M melanoma
  TGI: 7.63 µM
PC-3 prostate
  TGI: 12 µM
SW-620 colon
  TGI: 3.15 µM
SK-OV-3 ovarian
  TGI: 17.6 µM
SNB-75 CNS
  TGI: 7.95 µM
MDA-N
  TGI: 5.45 µM

## Cc1cc2ncn(-c3nc4ccccc4nc3C(C#N)S(C)(=O)=O)c2cc1C (stereo not drawn)
SF-268 CNS
  TGI: > 100 µM
A498 renal
  TGI: > 100 µM
NCI-H226 lung
  TGI: > 100 µM
SNB-19 CNS
  TGI: > 100 µM
MALME-3M melanoma
  TGI: > 100 µM
SW-620 colon
  TGI: > 100 µM
SK-OV-3 ovarian
  TGI: > 100 µM
SNB-75 CNS
  TGI: > 100 µM

## Cc1c(C)c2c(c(N)c1C#N)C(=O)N(O)C2=O
SF-268 CNS
  TGI: > 100 µM
HT29 colon
  TGI: > 100 µM
MDA-MB-435
  TGI: > 100 µM
A498 renal
  TGI: > 100 µM
NCI-H226 lung
  TGI: > 100 µM
SNB-19 CNS
  TGI: > 100 µM
MALME-3M melanoma
  TGI: > 100 µM
PC-3 prostate
  TGI: > 100 µM
SW-620 colon
  TGI: > 100 µM
SK-OV-3 ovarian
  TGI: > 100 µM
SNB-75 CNS
  TGI: > 100 µM

## CC(C)N(C(=O)C12C3C4C1C1C2C3C41C#N)C(C)C (stereo not drawn)
SF-268 CNS
  TGI: > 100 µM
HT29 colon
  TGI: > 100 µM
A498 renal
  TGI: > 100 µM
NCI-H226 lung
  TGI: > 100 µM
SNB-19 CNS
  TGI: > 100 µM
MALME-3M melanoma
  TGI: > 100 µM
SW-620 colon
  TGI: > 100 µM
SK-OV-3 ovarian
  TGI: > 100 µM
SNB-75 CNS
  TGI: > 100 µM
